The target in one data set is T1, FLAGx3-DYRK1A protein (Homo sapiens, UniProt Q13627).
T1 construct: 2A peptide (what is left of it after self-cleavage) (C); expressed in transfected cells
The experiment in a line: Screening with FLAGx3-DYRK1A-2A-HAx3-EGFP assay cells, Western blotting. It counts as cell-based. As to conditions: Western blot; for amount of intracellular DYRK1A protein: concentration of 4 μm, FIG. 8; for amount of FLAGx3-DYRK1A (FLAG-DYRK1A) protein within the cells: FIGS. 9-12, constant concentration not stated. How it is done:
Cultured cells with expressed FLAGx3-DYRK1A-2A-HAx3-EGFP (assay cells) were cultured on a plate, and test compounds of a constant concentration were added to the culture solution for a further cultivation. After the cultivation, the amounts of FLAGx3-DYRK1A, HAx3-EGFP, and GAPDH were quantitatively analyzed by a Western blotting method, and the ratio was analyzed.
After the cultivation, the amounts of FLAGx3-DYRK1A, HAx3-EGFP, and GAPDH were quantitatively analyzed by a Western blotting method, and the ratio was analyzed.
After the cultivation, the respective amounts of FLAGx3-DYRK1A, HAx3-EGFP, and GAPDH were quantitatively analyzed by a Western blotting method, and the ratio was analyzed.

The target in the next data set is T2, DYRK1A (Rattus norvegicus, UniProt Q63470).
T2 construct: from tissue; host or cells: living rat (whole animal); blood plasma analysed for homocysteine
The experiment in a line: Monitoring of DYRK1A activity inhibition using homocysteine in blood as index. In kind it is in vivo. The conditions noted are these: rats, oral, 18 mg/kg, FIG. 7. How it is done:
DYRK1A inhibitor Harmine was orally administered to rats, and the post-administration homocysteine concentration in blood was measured. The specific conditions are as follows, and the results are illustrated in FIG. 7.
After dissolving the DYRK1A inhibitor Harmine in an administration solvent of 0.9% NaCl, about 1 ml per individual was orally administered (final administration concentration: 18 mg/kg). At certain interval after the administration, the blood was collected from caudate veins. From the blood, blood plasma was separated and preserved in the presence of EDTA-2Na. Analysis of the homocysteine concentration in the blood plasma was consigned to SRL. Specifically, the measurement was conducted by extracting fractures including homocysteine from the blood plasma and then analyzing the amount of homocysteine included in the extract by HPLC (see Araki A et al: Journal of Chromatography 422, 43-52 1987, Araki A: Gendai-Iryou 22, 10, 2544-2549 1990).

The test system of a further data set is EGFP-TAU protein. Nature of the data set: Screening with mCherry-2A-EGFP-TAU assay cells, Western blot analysis. It counts as cell-based, human. The text has this:
An assay cell having the simultaneous expression system of EGFP-fused TAU and mCherry (mCherry-2A-EGFP-TAU) as shown in the model diagram of FIG. 5 was produced. Specifically, the process was as follows. EGFP was fused with TAU (EGFP-TAU), and further, it was connected in-frame by using 2A peptide and mCherry gene that codes a red fluorescent protein (mCherry-2A-EGFP-TAU). The 2A peptide is an amino acid sequence enabling a bicistronic gene expression. Thereby, mCherry-2A-EGFP-TAU is translated simultaneously from the top of a single mRNA. A vector expressing the gene (mCherry-2A-EGFP-TAU) was produced in the following manner.
In general terms: A western blot detects proteins with antibodies after separation by electrophoresis.

The melting point is the temperature, or range, at which the solid turns liquid. Consider `COc1ccc(/C=C2\SC(=S)NC2=O)cc1C#CC1CCCCC1` [Compound 3, (Z)-5-(3-(cyclohexylethynyl)-4-methoxybenzylidene)-2-thioxothiazolidin-4-one], for which the melting point is 185 to 186 °C. For the same compound, the “amount of intracellular DYRK1A protein” value on FLAGx3-DYRK1A protein is “capable of reducing”.

`COc1ccc(/C=C2\SC(=S)NC2=O)cc1-c1cc(C)cc(C)c1` [Compound 8, (Z)-5-(3,5-dimethylphenyl-4-methoxybenzylidene)-2-thioxothiazolidin-4-one] registered a melting point of 238 to 239 °C.

Consider `COc1ccc2c([nH]c3c(C)nccc32)c1C#C[Si](C)(C)C` [Compound 9, 8-[2-(trimethylsilyl)ethynyl]harmine], for which the melting point is 185 to 186 °C. In addition, the “amount of FLAGx3-DYRK1A (FLAG-DYRK1A) protein within the cells” value at FLAGx3-DYRK1A protein is on record as “reduces only the amount of the FLAG-DYRK1A protein”. On FLAGx3-DYRK1A protein (FIGS. 10-11), the “amount of the internal standard EGFP protein” value is “does not affect”.

As to `COc1ccc(/C=C2\SC(=S)NC2=O)cc1-c1cc(C(F)(F)F)cc(C(F)(F)F)c1` [Compound 6, (Z)-5-(3,5-bis(trifluoromethyl)phenyl-4-methoxybenzylidene)-2-thioxothiazolidin-4-one], the melting point lay in the range of 244 to 245 °C.

In the case of `COc1ccc2c(c1)[nH]c1c(C)nccc12` [Harmine], the homocysteine in blood entry at DYRK1A (after two hours from administration) is reported as “raised rapidly”. At DYRK1A (for 5 hours), the “homocysteine in blood compared with controls” value is given as “higher numerical values in comparison with controls”.

`COc1ccc(/C=C2\SC(=S)NC2=O)cc1C#CC1C2CC3CC(C2)CC1C3` (stereo not drawn) [Compound 4, (Z)-5-(3-(2-adamantylethynyl)-4-methoxybenzylidene)-2-thioxothiazolidin-4-one] returned a melting point of 266 to 267 °C. In addition, the “amount of intracellular DYRK1A protein” value on FLAGx3-DYRK1A protein is given as “capable of reducing”.

With `COc1ccc2c([nH]c3c(C)nccc32)c1C#CC1CCCCC1` [Compound 10, 8-[2-(cyclohexyl)ethynyl]harmine], the melting point lay in the range of 198 to 199 °C. Further, the “amount of FLAGx3-DYRK1A (FLAG-DYRK1A) protein within the cells” value on FLAGx3-DYRK1A protein is given as “reduces the FLAGx3-DYRK1A protein”.

`COc1ccc(/C=C2\SC(=S)NC2=O)cc1-c1cccc(C)c1` [Compound 5]: the melting point fell in the range of 204 to 205 °C. Moreover, on FLAGx3-DYRK1A protein, the “amount of intracellular DYRK1A protein” value was “capable of reducing”.

Compound `Fc1ccc(N2CCN(c3ccccc3)CC2)c(NC(=S)c2ccncc2)c1` [Compound 2, N-[5-fluoro-2-(4-phenyl-1-piperazinyl)phenyl]isonicotinthioamide] gave a melting point of 183 to 186 °C. In the data set with EGFP-TAU protein, the “effect on stability of TAU protein” value is “make TAU protein unstable and allow the protein to decompose”; the “effect on transcription and translation of TAU” value is “not to affect at all”. In the data set on EGFP-TAU protein (Western blot, FIG. 6), the “amount of the EGFP-TAU protein within the cells” value is listed as “reduces only the amount of the EGFP-TAU protein” and the “amount of the internal standard mCherry protein” value is “does not affect”.

With `COc1ccc(/C=C2\SC(=S)NC2=O)cc1-c1cccc(C(F)(F)F)c1` [Compound 7, (Z)-5-(3-(trifluoromethyl)phenyl-4-methoxybenzylidene)-2-thioxothiazolidin-4-one], the melting point lay within 209 to 210 °C.

The values are drawn from patent US20150133467A1, “SCREENING METHOD, PROTEIN INSTABILITY AND/OR STABILITY INDUCERS, AND PROTEIN ACTIVITY ASSESSMENT” (KYOTO UNIVERSITY, priority 2012, published 2015).
